Tests used:
[1] = system: Leishmania donovani axenic amastigote parasites; assay: Leishmania donovani axenic amastigote proliferation assay (Cell TiterGlo luminescence); type: cell-based; conditions: 48 h, axenic amastigotes, 2 day incubation, read-out: L. donovani amastigotes EC50
Description: Leishmania donovani Axenic Amastigote Proliferation Assay […] At the same time control compounds and DMSO are added to plates to serve as the positive and negative controls, respectively. 40 μL of parasite culture (9600 parasites) are then added to the plate wells. The plates are then placed into incubators. After 2 day incubation, 20 μL of Cell TiterGlo (Promega) is added to the plate wells. The luminescence signal of each well is measured using the Envision reader (Perkin Elmer).

[2] = system: Trypanosoma brucei Lister 427 strain, bloodstream form; assay: Proliferation of Trypanosoma brucei (Cell Titer Glo); type: cell-based; conditions: 48 hours, read-out: T. brucei EC50
From the text: Assay for Proliferation of Kinetoplastid Parasite Trypanosoma brucei. The proliferation is quantified by the addition of Cell Titer Glo (Promega®) a luminescent cell viability assay that measures the number of viable cells in culture based on the quantification of cellular ATP amount, which is an indicator of metabolically active cells. The following assay illustrates the invention without in any way limiting the scope of the invention. This parasite proliferation assay measures the increase in parasite growth using an assay that measures ATP activity, Cell Titer Glo®. […] Then 25 μl of a suspension of T. brucei culture in HMI-9 media is dispensed into the assay plates. […] The plates are then read for luminescence.

CON(C)C(=O)Nc1cccc(-c2cn3cc(NC(=O)OC(C)C)cnc3n2)c1 [Compound 14, propan-2-yl N-[2-(3-{[methoxy(methyl)carbamoyl]amino}phenyl)imidazo[1,2-a]pyrimidin-6-yl]carbamate]
EC50 [1]: 4.2 µM | EC50 [2]: 479 nM

Source: patent US9296754B2, “Compounds and compositions for the treatment of parasitic diseases” (Novartis AG, priority 2013, dated 2016)
